Key:
prelamin A = test: Western immunoblotting of prelamin A; type: cell-based, human; details: HGPS MSCs, optimal concentration
Experimental: Whole-cell lysates of MSC were collected, separated by SDS-PAGE, and transferred onto PVPF membrane by liquid transfer method. Blots were blocked in 10% skim milk (Bio-Rad) in tween 0.1% tris-buffered saline (TTBS) 1× one hour at room temperature. The primary antibodies used were a mouse anti-lamins A/C 1:200 (Millipore, JOL2), a rabbit anti-prelamin A 1/100 (ANTOO45, Diatheva) and a β-actin 1/200000 (Sigma). Membranes were incubated during the night at 4° C. Antigen-antibody binding was detected using horseradish peroxidaseconjugated species-specific secondary antibodies (GE-Healthcare, Little Chalfont, UK) followed by enhanced chemiluminescence Western blotting detection reagents (Perkin-Elmer, Waltham, USA).

HGPS MSCs [1] = test: Osteogenic differentiation (alkaline phosphatase activity); type: cell-based, human; details: 7 days of osteogenic differentiation
Experimental: MSC were seeded at 600 cells per well in 384 well plate in MSC culture medium and treated as previously described. After 72 hours, MSC medium was replaced by STEMPRO osteogenic induction medium (Invitrogen) in presence or not of the different drugs. After 7 days of treatment, cells were fixed with ethanol 95% and stained by adding either a colorimetric substrate of the alkaline phosphatase, the 5-Bromo-4-chloro-3-indolyl phosphate/Nitro blue tetrazolium (NBT) (Sigma-Aldrich) or a chromogenic substrate of this enzyme (absorbance at 405 nm), the p-Nitrophenyl Phosphate (pNPP) (Pierce Biotechnology).

HGPS MSCs [2] = test: Nuclear shape abnormalities (lamin A/C immunostaining); type: cell-based, human; details: 48 h, lamin A/C staining
Experimental: In the 4-steps protocol, cells were fixed in 4% paraformaldehyde (15 minutes, room temperature) before permeabilization and blocking in PBS supplemented with 0.1% triton X-100 and 1% BSA (Sigma-Aldrich, St. Louis, USA). Primary antibodies were incubated one hour at room temperature in blocking buffer. Antibodies included mouse anti-lamins A/C (clone JOL2, Millipore, Billerica, USA), rabbit anti-prelamin A (ANTOO45, Diatheva) and anti-Ki67 (clone Ki-S5, MAB4190, Millipore, Billerica, USA). Cells were stained with the species-specific fluorophore-conjugated secondary antibody (Invitrogen) (one hour, room temperature) and nuclei were visualized with Hoechst 33342.

FT = target: T1, FT (Homo sapiens, UniProt P49354+P49356); test: FT activity assay (Farnesyltransferase [3H] SPA); type: biochemical; details: concentration inducing 50% of the maximum inhibiting effect of the compound
T1 construct: Reactions were started by adding 40 μL of treated or untreated cell lysate; endogenous in cells; host or cells: HGPS MSCs (cell lysate)
Experimental: (§1) Cell pellet of HGPS MSCs were resuspended in 25 mM Tris-HCl pH 7.4, 1 mM DTT, 1 mM MgCl2, 1 EDTA, 1 mM PMSF and centrifuged at 10,000×g for 10 min at 4° C. Protein content was determined using Lowry's method. Aliquots of cell lysate containing 100 μg of total proteins were incubated with tested substances at 37° C. for 30 min.
FT activity was determined by Famesyltransferase [3H] SPA enzyme assay (Amersham Life Science, Buckinghamshire, England). Briefly, FT activity was assayed in 20 μl of assay buffer containing 50 mmol/L Hepes, 30 mmol/L MgCl2, 20 mmol/L KCl and 5 mmol/L dithiothreitol, 20 μl of [3H]-FPP (12 pmol) and 20 μl of biotin lamin B. Reactions were started by adding 40 μL of treated or untreated cell lysate and incubated for 1 hour at 37° C. Reactions were stopped by the addition of 150 μL of stop reagent containing SPA bead and counted in a scintillation counter. FT activity was expressed as pmoles of incorporated [3H]-FPP into biotin lamin-B peptide per minute per milligram of total proteins (pmol/min/mg prot). Parallel samples were assayed to evaluate the total and the nonspecific radioactivity. In all experiments enzyme assays were carried out in triplicate.

FPPS [3] = target: T2, FPPS (Homo sapiens, UniProt P14324); test: Surface plasmon resonance on immobilized FPPS; type: binding
T2 sequence (P14324 1-419): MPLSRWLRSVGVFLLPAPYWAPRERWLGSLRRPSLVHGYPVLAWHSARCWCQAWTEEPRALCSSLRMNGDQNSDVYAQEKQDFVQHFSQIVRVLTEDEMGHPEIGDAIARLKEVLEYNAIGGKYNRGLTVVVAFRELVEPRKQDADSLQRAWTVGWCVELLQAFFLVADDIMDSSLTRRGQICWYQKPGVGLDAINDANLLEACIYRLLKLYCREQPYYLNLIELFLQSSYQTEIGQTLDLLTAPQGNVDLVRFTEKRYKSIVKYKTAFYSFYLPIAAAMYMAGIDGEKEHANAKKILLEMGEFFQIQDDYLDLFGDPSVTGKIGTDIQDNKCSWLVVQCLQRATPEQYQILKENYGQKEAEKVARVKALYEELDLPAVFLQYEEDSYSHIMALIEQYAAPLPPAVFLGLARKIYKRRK
Experimental: Surface plasmon resonance (SPR) was measured using a BIAcore 3000 instrument at 25° C. FPPS (2800 RU) was immobilized on flow cells of a CM5-chip. The running buffer was HBSEP pH 7.4 (20 mM Hepes, 150 mM NaCl, and 0.005% P20). Regeneration was performed with 10 mM glycine, pH 3.0. […] Data were evaluated using Scrubber2 (Biologic software) and BIAeval software (BIAcore).

FPPS [4] = target: T2, FPPS; test: FPPS activity assay; type: biochemical; parameters: endogenous in cells; host or cells: HGPS MSCs (cell lysate); details: concentration inducing 50% of the maximum inhibiting effect of the compound
Experimental: as §1
FPPS assay was carried out with some modifications of the procedure of Krisans et al. (Krisans et al., 1994, The Journal of biological chemistry VOL. 269: 14165-14169) and described by Gupta et al. (Gupta et al., 1999, Eur J Med Chem, VOL. 43: 2751-2767). Briefly, FPPS was assayed in 150 μL containing 25 mmol/L Hepes, pH=7, 2 mmol/L MgCl2, 1 mmol/L dithiothreitol, 5 mmol/L KF, 1% A noctyl-β-glucopyranoside, 3.3 μmol/L [4-14C] IPP (18 Ci/mmol), 3 μmol/L unlabeled IPP and 20 μmol/L geranyl diphosphate. Reactions were started by adding 40 μL of treated or untreated cell lysate and incubated for 45 min at 37° C. Reactions were stopped by the addition of 150 μL 2.5 mol/L HCl in 80% ethanol containing 100 μg/mL farnesol as a carrier. The samples were hydrolyzed for 30 min at 37° C. to convert the FPP to farnesol and neutralized by the addition of 150 μL of 10% NaOH. The reaction product (farnesol) was extracted into 1 mL of N-hexane and an aliquot (200 μL) of the organic phase was used for radioactivity counting. Parallel samples were assayed to evaluate the total and the nonspecific radioactivity. In all experiments, enzyme assays were carried out in triplicate.

**Q.** Which results are given for `N#CC(c1ccccn1)c1ccnc(N2CCN(Cc3ccccc3F)CC2)n1` (stereo not shown) [Mono-AP1, {2-[4-(2-fluoro-benzyl)-piperazin-1-yl]-pyrimidin-4-yl}-pyridin-2-yl-acetonitrile]?
**A.** prelamin A level (Western blot) (prelamin A): increased; rescue of premature osteogenic differentiation (alkaline phosphatase activity) (HGPS MSCs [1]): not significantly different to those observed following FTI treatment; rescue of nuclear shape abnormalities (HGPS MSCs [2]): restoring HGPS MSCs nuclear shape defects at levels not significantly different from the FTI tipifarnib; IC50 (FT): 3.46 µM; direct interaction with FPPS (SPR), in words (FPPS [3]): confirmed the direct interactions; Kd (FPPS [3]; SPR, BIAcore 3000, 25° C., read-out: Kd (M), equilibrium dissociation constant): 2.4e-05 M; IC50 (FPPS [4]): 1.55 µM
